Key:
Format in all cases: in vivo, human
[1] = test system: flavor intensity; assay: Tomato taste panel; association of compounds with tomato flavor intensity; settings: for association with flavor intensity: univariate models
Procedure: Fully ripe fruit were harvested, and used for taste panels. A random subset of fruit was used for biochemical analysis. Three biological replicates, each consisting of 2-20 fruit (depending on fruit size), were assayed for each variety. […] Panelists were between the ages of 18 and 78 with a median age of 22. […] An average of 85 (range of 66-95) of these panelists evaluated between 4-6 varieties in a session. All panelists went through a training session to familiarize them with the scaling and procedures. Tomatoes were sliced into wedges (or in halves for grape/cherry types) and each panelist was given two pieces for evaluation. Panelists took a bite of each sample, chewed and swallowed it, and rated overall liking and liking for texture. They then rated the perceived intensities of sweetness, sourness, saltiness, umami sensation, bitterness and overall tomato flavor. They were free to take as many bites as necessary to complete the assessments. They were instructed to take a bite of an unsalted cracker and a sip of water between samples. Samples were presented to the panelists in a randomized order. Hedonic ratings used the hedonic gLMS. This scale assesses the liking for tomatoes in the context of all pleasure/displeasure experiences: 0=neutral, −100=strongest disliking of any kind experienced, and +100=strongest liking of any kind experienced. Sensory intensity ratings used the gLMS (7,8,19). This scale assesses taste and flavor sensations in the context of all sensory experience (7): 0=no sensation, 100=strongest sensation of any kind experienced. Both scales were devised to provide valid comparisons across subjects.
The 68 chemical compounds measured in this experiment were initially divided into six groups based upon biochemical properties: sugars, branched chain amino acids, lipids, carotenoids, phenolics, and acids. A small number of compounds for which biosynthetic pathways are not established were assigned to one of the six classes based upon their correlations with other classified compounds. All pairwise correlations among the set of 68 compounds were calculated. Correlation coefficients were sorted using Modulated Modularity Clustering (MMC) (9) as a visual aid for identifying compounds that are closely related in this sample. Biochemical groups were examined for compounds within the group that were highly correlated and compounds that were upstream in the relevant metabolic pathways were preferentially selected.
All analyses were performed in SAS v 9.2.
Due to the large number of chemicals potentially influencing liking, a multivariate analysis of the data was performed. The attributes were initially partitioned into six groups based upon chemical properties and biosynthetic pathways: sugars, branched chain amino acids, fatty acids, carotenoids, phenolics, and acids. […] Groups of structurally related chemicals with known metabolic links were examined for compounds within each module that were highly colinear and compounds that were upstream in relevant metabolic pathways were preferentially selected.

[2] = test system: perceived sweetness intensity; assay: Strawberry consumer panel; revised partial least squares regression against sweetness intensity (Table 6)
Procedure: (§1) All consumer panels were approved by the University of Florida Institutional Review Board. […] Ages of panelist ranged from 18 to 71, with a median age of 24. Panelists self-classified themselves as 98 White or Caucasian, 11 Black or African-American, 1 Native American, Alaska Native or Aleutian, 41 Asian/Pacific Islander, and 15 Other. […] Fresh, fully-ripe strawberry fruit was removed from overnight 4° C. dark storage and allowed to warm to room temperature prior to sensory analysis. Each panelist was given one to two whole strawberries for evaluation, depending on cultivar availability. Panelist took a bite of each sample, chewed, and swallowed it. Ratings for overall liking and liking for texture were scaled on hedonic general labeled magnitude scale (gLMS) in the context of all pleasure/displeasure experiences. […] Scales were employed to mediate valid comparisons across subjects and sessions.
For the second analysis, partial least squares regression analysis was used to identify more correlations to sweetness independent of sugars.

[3] = test system: perceived sweetness intensity; assay: Strawberry consumer panel; initial multiple regression of volatiles against perceived sweetness intensity independent of glucose, fructose or sucrose (Table 5); settings: for FRUCTOSE t RATIO / GLUCOSE t RATIO / SUCROSE t RATIO: standard least squares; for FRUCTOSE t RATIO: sweetness intensity independent of fructose; for GLUCOSE t RATIO: sweetness intensity independent of glucose; for SUCROSE t RATIO: sweetness intensity independent of sucrose; for relation to sweetness intensity independent of sugars: initial step-wise multiple regression
Procedure: Step-wise multiple regressions of all volatile compounds against perceived intensity of sweetness is performed independent of either glucose, fructose, or sucrose concentration, separately (Table 5).
At least 100 grams or seven berries of each sample were removed from 4° C. dark overnight storage prior to volatile collection. Samples were homogenized in a blender prior to splitting into three 15 gram replicates for immediate capturing of volatile emission and remainder of sample frozen in N2 (I) and stored at −80° C. for later sugar and acid quantification.
Oven temperatures programmed from 40° C. (0.5 min hold) at 5° C. min^−1 to 250° C. (4 min hold). Signals captured with a flame ionization detector (FID) at 280° C. Peaks from FID signal were integrated manually with Chemstation B.04.01 software (Agilent Technologies, Santa Clara, Calif.). Volatile emission (ng gFW^−1 h^−1) calculated based on individual peak area relative to sample elution standard peak area.
as §1
For the first analysis, individual volatile compound concentrations were regressed using the “enter” method in SPSS Statistics (IBM Corp, Armonk, N.Y., USA).

[4] = strawberry volatile concentration regressed against perceived sweetness intensity independent of fructose, partial least squares regression
[5] = strawberry volatile concentration regressed against perceived sweetness intensity independent of glucose, partial least squares regression
[6] = strawberry volatile concentration regressed against perceived sweetness intensity independent of sucrose, partial least squares regression

| Molecule | FRUCTOSE t RATIO [3] | GLUCOSE t RATIO [3] | SUCROSE t RATIO [3] | further results |
| --- | --- | --- | --- | --- |
| C=CC(=O)CCCCC [1-octen-3-one] | – | – | – | association with flavor intensity after accounting for fructose [1]: significant after accounting for fructose; association with flavor intensity [1]: associated with flavor intensity |
| CCCCCC=CC=O [2-Octenal] | – | – | – | t Ratio (Fructose) [2, 4]: −0.171; t Ratio (Glucose) [2, 5]: 0.292; t Ratio (Sucrose) [2, 6]: 2.052 |
| CCCCC(C)=O [591-78-6] | 2.807 | 2.788 | 0.767 | – |
| C=CC(O)CC (stereo not shown) [616-25-1] | 1.773 | 1.628 | 0.795 | – |
| C/C=C/C(=O)OC [623-43-8] | 0.248 | 0.54 | −1.396 | – |
| CCCCC(=O)OC [624-24-8] | −0.406 | −0.416 | 0.662 | – |
| CCC(C)COC(C)=O (stereo not shown) [624-41-9] | −0.433 | −0.494 | −1.323 | – |
| CCCCCOC(C)=O [628-63-7] | 0.882 | 0.749 | 0.427 | – |
| CCCCCCC1CCC(=O)O1 (stereo not shown) [706-14-9] | 1.247 | 0.879 | 1.65 | – |
| CCC/C=C/CO [928-95-0] | −1.842 | −1.521 | −0.516 | – |
| CSC(C)=O [1534-08-3] | 0.488 | 0.429 | 1.035 | – |
| CC/C=C\C=O [1576-86-9] | 4.16 | 3.915 | 0.935 | – |
| CC/C=C/C=O [1576-87-0] | 4.566 | 4.301 | 1.024 | – |
| CCCCCCCCC1CCC(=O)O1 (stereo not shown) [2305-05-7, 5-octyldihydro-2(3H)-furanone] | – | – | – | relation to sweetness intensity independent of sugars [3]: enhance sweetness intensity |
| CCCCCC(=O)OC(C)C [2311-46-8] | 0.238 | −0.058 | 2.211 | – |
| CCCC(=O)SC [2432-51-1] | −0.956 | −1.092 | 2.033 | – |
| CCC/C=C/COC(C)=O [2497-18-9] | −0.313 | −0.331 | −0.056 | – |
| CCCCC/C=C/C=O [2548-87-0] | 1.76 | 1.509 | 0.067 | – |
| CCCCCCOC(=O)CCC [2639-63-6, hexyl butyrate] | – | – | – | relation to sweetness intensity independent of sugars [3]: enhance sweetness intensity |
| CCCCCCC/C=C/C=O [3913-81-3] | 3.694 | 3.494 | 1.411 | – |
| CCCCCCCCOC(=O)CCCCC [4887-30-3] | 0.392 | 0.254 | 2.71 | – |
| CCCCCCCCCCOC(=O)CCC [5454-09-1] | 1.804 | 1.579 | 2.085 | – |
| CCCCCC(CC)CC [5881-17-4] | 2.894 | 2.662 | 0.608 | – |

| Molecule | FRUCTOSE t RATIO [3] | GLUCOSE t RATIO [3] | SUCROSE t RATIO [3] | further results |
| --- | --- | --- | --- | --- |
| C=C[C@]1(C)CC[C@H](C(C)(C)O)O1 [5989-33-3] | 1.869 | 1.561 | 1.953 | – |
| CCOC(=O)C(C)CC (stereo not shown) [7452-79-1] | 1.959 | 1.993 | −0.785 | – |
| CCCCCCCCOC(=O)CC(C)C [7786-58-5] | 0.362 | 0.227 | 2.027 | – |
| CCCCCCCCCOC(=O)C(C)C [10522-34-6] | 0.536 | 0.288 | 2.049 | – |
| C=C(C)C1CC=C(COC(C)=O)CC1 (stereo not shown) [15111-96-3] | 0.23 | 0.192 | 0.927 | – |
| CCCCC/C=C\C=O [20664-46-4] | −0.17 | −0.395 | 1.383 | – |
| CCC(O)C(=O)OC (stereo not shown) [29674-47-3] | 1.339 | 1.362 | 0.035 | – |
| CCCCCCCCOC(=O)C(C)CC (stereo not shown) [29811-50-5] | 0.016 | −0.098 | 0.358 | – |
| C=CC(C)(O)CC/C=C(\C)CCC=C(C)C (stereo not shown) [40716-66-3] | 1.521 | 1.202 | 1 | – |
| CC=C(C)C(=O)OCC [55514-48-2] | −0.644 | −0.675 | −0.889 | – |
| CCCC(=O)OC(C)CCC (stereo not shown) [60415-61-4, 2-pentanyl butyrate] | – | – | – | relation to sweetness intensity independent of sugars [3]: enhance sweetness intensity |
| C=C[C@]1(C)CC[C@H](C(C)(C)O)O1 [(Z)-Linalool oxide] | – | – | – | t Ratio (Fructose) [2, 4]: 1.868; t Ratio (Glucose) [2, 5]: 1.561; t Ratio (Sucrose) [2, 6]: 1.954 |
| CC1(C)[C@H]2CC=C(C=O)[C@@H]1C2 [Myrtenal] | – | – | – | t Ratio (Fructose) [2, 4]: 2.588; t Ratio (Glucose) [2, 5]: 2.455; t Ratio (Sucrose) [2, 6]: −1.323 |
| CCCCCCCCOC(=O)C(C)CC (stereo not shown) [Octyl 2-methyl butyrate] | – | – | – | t Ratio (Fructose) ([2]; in vivo): 0.015; t Ratio (Glucose) ([2]; in vivo): −0.099; t Ratio (Sucrose) ([2]; in vivo): 0.357 |
| C=C(C)C1CC=C(COC(C)=O)CC1 (stereo not shown) [Perillyl acetate] | – | – | – | t Ratio (Fructose) [2, 4]: 0.231; t Ratio (Glucose) [2, 5]: 0.193; t Ratio (Sucrose) [2, 6]: 0.927 |
| c1ccc2scnc2c1 [benzothiazole] | – | – | – | association with flavor intensity [1]: associated with flavor intensity |
| O=C(O)CC(O)(CC(=O)O)C(=O)O [citric acid] | – | – | – | association with flavor intensity after accounting for fructose [1]: significant after accounting for fructose; association with flavor intensity [1]: associated with flavor intensity |
| CCCCCCOC(C)=O [hexyl acetate] | – | – | – | relation to sweetness intensity independent of sugars [3]: enhance sweetness intensity |
| CC(=O)OCC=C(C)C [prenyl acetate, 3-methyl-2-buten-1-yl acetate] | – | – | – | relation to sweetness intensity independent of sugars [3]: negatively related to sweetness |
| CCC(C)OC(C)=O (stereo not shown) [sec-butyl acetate] | – | – | – | association with flavor intensity after accounting for fructose [1]: significant after accounting for fructose |
| CCCCC/C=C/C=C/C=O [trans,trans-2,4-decadienal] | – | – | – | association with flavor intensity after accounting for fructose [1]: significant after accounting for fructose; association with flavor intensity [1]: associated with flavor intensity |
| CCCCCCC1CCC(=O)O1 (stereo not shown) [γ-Decalactone] | – | – | – | t Ratio (Fructose) [2, 4]: 1.246; t Ratio (Glucose) [2, 5]: 0.88; t Ratio (Sucrose) [2, 6]: 1.650 |
| Methyl thiolacetate | – | – | – | t Ratio (Fructose) [2, 4]: 0.476; t Ratio (Glucose) [2, 5]: 0.416; t Ratio (Sucrose) [2, 6]: 1.037 |
